PMC5218480 (PLoS ONE, 2017)

Tested on: MV-4-11 cells
Assay: Gene expression microarray analysis (Affymetrix PrimeView) and GSEA
Format: cell-based, human
Design: RFU PODN (11730768_x_at) / Fold change /veh PODN (11730768_x_at) / RFU LINC00158 (11744669_a_at) / Fold change /veh LINC00158 (11744669_a_at) / RFU DUSP10 (11751237_a_at) / Fold change /veh DUSP10 (11751237_a_at) / RFU ID3 (11757404_x_at) / Fold change /veh ID3 (11757404_x_at) / RFU PLEKHG5 (11737974_s_at) / Fold change /veh PLEKHG5 (11737974_s_at) / RFU LRRC4B (11730491_at) / Fold change /veh LRRC4B (11730491_at) / RFU GIMAP4 (11747438_a_at) / Fold change /veh GIMAP4 (11747438_a_at) / RFU KRT8 (11758183_x_at) / Fold change /veh KRT8 (11758183_x_at) / RFU CNN1 (11734310_a_at) / Fold change /veh CNN1 (11734310_a_at) / RFU VPS37D (11726825_at) / Fold change /veh VPS37D (11726825_at) / RFU C10orf10 (11716522_x_at) / Fold change /veh C10orf10 (11716522_x_at) / RFU KIR2DL2 /// KIR2DL4 /// KIR2DL5A /// KIR2DL5B /// KIR2DS1 /// KIR2DS2 /// KIR2DS3 /// KIR2DS4 /// KIR3DL3 /// KIR3DL3 /// KIR3DS1 (11738374_at) / Fold change /veh KIR2DL2 /// KIR2DL4 /// KIR2DL5A /// KIR2DL5B /// KIR2DS1 /// KIR2DS2 /// KIR2DS3 /// KIR2DS4 /// KIR3DL3 /// KIR3DL3 /// KIR3DS1 (11738374_at) / RFU C1QL1 (11718748_at) / Fold change /veh C1QL1 (11718748_at) / RFU TMPRSS4 (11747572_a_at) / Fold change /veh TMPRSS4 (11747572_a_at) / RFU HAMP (11756126_x_at) / Fold change /veh HAMP (11756126_x_at) / RFU RNFT2 (11725882_a_at) / Fold change /veh RNFT2 (11725882_a_at) / RFU NR4A2 (11747474_a_at) / Fold change /veh NR4A2 (11747474_a_at) / RFU ABCC12 (11746883_a_at) / Fold change /veh ABCC12 (11746883_a_at) / RFU TMEM136 (11760407_x_at) / Fold change /veh TMEM136 (11760407_x_at) / RFU CLDN22 /// WWC2 (11732394_at) / Fold change /veh CLDN22 /// WWC2 (11732394_at) / RFU HLA-DPB1 (11760878_x_at) / Fold change /veh HLA-DPB1 (11760878_x_at) / RFU SPINT1 (11716480_a_at) / Fold change /veh SPINT1 (11716480_a_at) / RFU GAP43 (11754022_s_at) / Fold change /veh GAP43 (11754022_s_at) / RFU A4GNT (11735810_at) / Fold change /veh A4GNT (11735810_at) / RFU PRB3 (11715151_x_at) / Fold change /veh PRB3 (11715151_x_at) / RFU TUBB4B (11761932_at) / Fold change /veh TUBB4B (11761932_at) / RFU CAPN14 (11732068_a_at) / Fold change /veh CAPN14 (11732068_a_at) / RFU TMCC2 (11721928_a_at) / Fold change /veh TMCC2 (11721928_a_at) / RFU IRGQ (11745062_a_at) / Fold change /veh IRGQ (11745062_a_at) / RFU FAM174B (11720279_a_at) / Fold change /veh FAM174B (11720279_a_at) / RFU TMPRSS4 (11748680_a_at) / Fold change /veh TMPRSS4 (11748680_a_at) / RFU FAM212B (11763350_a_at) / Fold change /veh FAM212B (11763350_a_at) / RFU PLEKHG5 (11743358_a_at) / Fold change /veh PLEKHG5 (11743358_a_at) / RFU ZSCAN30 (11745921_a_at) / Fold change /veh ZSCAN30 (11745921_a_at) / RFU CMKLR1 (11741424_a_at) / Fold change /veh CMKLR1 (11741424_a_at) / RFU LOC101060620 /// MAPK8IP1 (11723275_at) / Fold change /veh LOC101060620 /// MAPK8IP1 (11723275_at) / RFU SPTSSB (11747773_x_at) / Fold change /veh SPTSSB (11747773_x_at) / RFU PRSS12 (11739890_at) / Fold change /veh PRSS12 (11739890_at) / RFU BIN1 (11741810_x_at) / Fold change /veh BIN1 (11741810_x_at) / RFU WNT11 (11732464_a_at) / Fold change /veh WNT11 (11732464_a_at) / RFU C10orf10 (11716521_a_at) / Fold change /veh C10orf10 (11716521_a_at) / RFU C5orf56 (11738089_at) / Fold change /veh C5orf56 (11738089_at) / RFU CYB561 (11721691_x_at) / Fold change /veh CYB561 (11721691_x_at) / RFU ANKRD19P (11752326_a_at) / Fold change /veh ANKRD19P (11752326_a_at) / RFU OR2T12 /// OR2T33 /// OR2T8 (11738714_s_at) / Fold change /veh OR2T12 /// OR2T33 /// OR2T8 (11738714_s_at) / RFU VCAN (11748164_a_at) / Fold change /veh VCAN (11748164_a_at) / RFU JSRP1 (11732532_at) / Fold change /veh JSRP1 (11732532_at) / RFU KRTAP10-11 (11738290_x_at) / Fold change /veh KRTAP10-11 (11738290_x_at) / RFU MYO3A (11730013_a_at) / Fold change /veh MYO3A (11730013_a_at) / RFU EBF3 (11725865_a_at) / Fold change /veh EBF3 (11725865_a_at) / RFU CAMK2N1 (11719241_x_at) / Fold change /veh CAMK2N1 (11719241_x_at) / RFU C5orf56 (11738088_a_at) / Fold change /veh C5orf56 (11738088_a_at) / RFU OLFML3 (11715873_a_at) / Fold change /veh OLFML3 (11715873_a_at) / RFU LOC100653217 /// NTM (11731650_a_at) / Fold change /veh LOC100653217 /// NTM (11731650_a_at) / RFU MAPK11 (11762145_a_at) / Fold change /veh MAPK11 (11762145_a_at) / RFU FIZ1 (11724087_x_at) / Fold change /veh FIZ1 (11724087_x_at) / RFU OASL (11726364_x_at) / Fold change /veh OASL (11726364_x_at) / RFU SOX15 (11748057_x_at) / Fold change /veh SOX15 (11748057_x_at) / RFU CD79A (11719716_a_at) / Fold change /veh CD79A (11719716_a_at) / RFU HIST1H1D (11736915_at) / Fold change /veh HIST1H1D (11736915_at) / RFU CASKIN2 (11723855_a_at) / Fold change /veh CASKIN2 (11723855_a_at) / RFU LOC730098 (11760151_x_at) / Fold change /veh LOC730098 (11760151_x_at) / RFU OR4N2 (11742367_at) / Fold change /veh OR4N2 (11742367_at) / RFU PRRT2 (11749266_a_at) / Fold change /veh PRRT2 (11749266_a_at) / RFU SNX32 (11753110_a_at) / Fold change /veh SNX32 (11753110_a_at) / RFU CDHR5 (11726645_a_at) / Fold change /veh CDHR5 (11726645_a_at) / RFU RCAN1 (11760418_a_at) / Fold change /veh RCAN1 (11760418_a_at) / RFU FAM167A (11723789_a_at) / Fold change /veh FAM167A (11723789_a_at) / RFU FAM26E (11764081_at) / Fold change /veh FAM26E (11764081_at) / RFU ISYNA1 (11749810_s_at) / Fold change /veh ISYNA1 (11749810_s_at) / RFU ACY1 (11761880_at) / Fold change /veh ACY1 (11761880_at) / RFU 11764098_at / Fold change /veh 11764098_at / RFU SAMD14 (11745864_x_at) / Fold change /veh SAMD14 (11745864_x_at) / RFU NPB (11741838_a_at) / Fold change /veh NPB (11741838_a_at) / RFU TMPRSS6 (11731388_a_at) / Fold change /veh TMPRSS6 (11731388_a_at) / RFU KRTAP10-2 (11738614_at) / Fold change /veh KRTAP10-2 (11738614_at) / RFU ARHGAP8 /// PRR5-ARHGAP8 (11727945_x_at) / Fold change /veh ARHGAP8 /// PRR5-ARHGAP8 (11727945_x_at) / RFU KRTAP5-7 /// NADSYN1 (11734609_at) / Fold change /veh KRTAP5-7 /// NADSYN1 (11734609_at) / RFU RASL12 (11751679_a_at) / Fold change /veh RASL12 (11751679_a_at) / RFU CDKN2B (11736163_a_at) / Fold change /veh CDKN2B (11736163_a_at) / RFU PRF1 (11729649_at) / Fold change /veh PRF1 (11729649_at) / RFU, ZNF638 /// ZNF638-IT1 / Fold change vs veh, ZNF638 /// ZNF638-IT1 / RFU, PANK3 / Fold change vs veh, PANK3 / RFU, SH3YL1 / Fold change vs veh, SH3YL1 / RFU, ZEB2 / Fold change vs veh, ZEB2 / RFU, NRIP1 / Fold change vs veh, NRIP1 / RFU, PTTG1IP / Fold change vs veh, PTTG1IP / RFU, CAPN2 / Fold change vs veh, CAPN2 / RFU, MED14 / Fold change vs veh, MED14 / RFU, SNORA58 / Fold change vs veh, SNORA58 / RFU, C1orf63 / Fold change vs veh, C1orf63 / RFU, LRRFIP1 / Fold change vs veh, LRRFIP1 / RFU, NDUFAF7 / Fold change vs veh, NDUFAF7 / RFU, SLC12A2 / Fold change vs veh, SLC12A2 / RFU, IBTK / Fold change vs veh, IBTK / RFU, ESF1 / Fold change vs veh, ESF1 / Fold change vs veh, TMEM50B / RFU, TAOK1 / Fold change vs veh, TAOK1 / RFU, ACBD3 / Fold change vs veh, ACBD3 / RFU, TMA16 / Fold change vs veh, TMA16 / RFU, RWDD3 / Fold change vs veh, RWDD3 / RFU, BCAT1 / Fold change vs veh, BCAT1 / RFU, EDEM3 / Fold change vs veh, EDEM3 / RFU, TMEM33 / Fold change vs veh, TMEM33 / RFU, WDR75 / Fold change vs veh, WDR75 / RFU, AHCTF1 / Fold change vs veh, AHCTF1 / RFU, TFRC / Fold change vs veh, TFRC / RFU, ZDHHC17 / Fold change vs veh, ZDHHC17 / RFU, NOM1 / Fold change vs veh, NOM1 / RFU, ARL8B / Fold change vs veh, ARL8B / RFU, ZBTB11 / Fold change vs veh, ZBTB11 / RFU, TAMM41 / Fold change vs veh, TAMM41 / RFU, KIAA1704 /// LOC100996395 / Fold change vs veh, KIAA1704 /// LOC100996395 / RFU, ING1 / Fold change vs veh, ING1 / RFU, TRMT61B / Fold change vs veh, TRMT61B / RFU, FUBP3 / Fold change vs veh, FUBP3 / RFU, TP53 / Fold change vs veh, TP53 / RFU, TNKS2 / Fold change vs veh, TNKS2 / RFU, ZFP14 / Fold change vs veh, ZFP14 / RFU, ACTR2 / Fold change vs veh, ACTR2 / RFU, PPP3R1 / Fold change vs veh, PPP3R1 / RFU, PIK3R1 / Fold change vs veh, PIK3R1 / RFU, HNRNPA1 / Fold change vs veh, HNRNPA1 / RFU, RNF170 / Fold change vs veh, RNF170 / RFU, ZNF28 / Fold change vs veh, ZNF28 / RFU, RNGTT / Fold change vs veh, RNGTT / RFU, OGT / Fold change vs veh, OGT / RFU, BRD1 / Fold change vs veh, BRD1 / RFU, MARS / Fold change vs veh, MARS / RFU, ZNF655 / Fold change vs veh, ZNF655 / RFU, FAHD1 / Fold change vs veh, FAHD1 / RFU, BDP1 / Fold change vs veh, BDP1 / RFU, LRRCC1 / Fold change vs veh, LRRCC1 / RFU, ARID1A / Fold change vs veh, ARID1A / RFU, ZNF146 / Fold change vs veh, ZNF146 / RFU, ZNF330 / Fold change vs veh, ZNF330 / RFU, GPN3 / Fold change vs veh, GPN3 / RFU, C9orf123 / Fold change vs veh, C9orf123 / RFU, N4BP2L2 / Fold change vs veh, N4BP2L2 / RFU, ARFIP1 / Fold change vs veh, ARFIP1 / RFU, FAM179B / Fold change vs veh, FAM179B / RFU, BCL10 / Fold change vs veh, BCL10 / RFU, UHRF1BP1L / Fold change vs veh, UHRF1BP1L / RFU, BET1 / Fold change vs veh, BET1 / RFU, CNOT2 / Fold change vs veh, CNOT2 / RFU, ZNF268 / Fold change vs veh, ZNF268 / Fold change vs veh, ZNF507 / RFU, DGCR2 / Fold change vs veh, DGCR2 / RFU, WDSUB1 / Fold change vs veh, WDSUB1 / Fold change vs veh, HSP90B1 /// MIR3652 / RFU, ADSS / Fold change vs veh, ADSS / RFU, GK / Fold change vs veh, GK / RFU, ZNF148 / Fold change vs veh, ZNF148 / RFU, TAF9 / Fold change vs veh, TAF9 / RFU, SLC1A5 / Fold change vs veh, SLC1A5 / RFU, SLMO2 / Fold change vs veh, SLMO2 / RFU, ABCC4 / Fold change vs veh, ABCC4 / RFU, LOC101060439 /// RAP1B / Fold change vs veh, LOC101060439 /// RAP1B / RFU, RFX7 / Fold change vs veh, RFX7 / RFU, GTPBP10 / Fold change vs veh, GTPBP10 / RFU, CNEP1R1 / Fold change vs veh, CNEP1R1 / RFU, BIVM-ERCC5 /// ERCC5 / Fold change vs veh, BIVM-ERCC5 /// ERCC5 / RFU, ILF3 / Fold change vs veh, ILF3 / RFU 11762660_at / Fold change /veh 11762660_at / RFU VCAN (11757783_s_at) / Fold change /veh VCAN (11757783_s_at) / RFU DDX43 (11728927_at) / Fold change /veh DDX43 (11728927_at) / RFU KRT8 (11758188_x_at) / Fold change /veh KRT8 (11758188_x_at) / RFU NKD1 (11759106_at) / Fold change /veh NKD1 (11759106_at) / RFU SRD5A1 (11742802_a_at) / Fold change /veh SRD5A1 (11742802_a_at) / RFU TPSAB1 /// TPSB2 (11721975_s_at) / Fold change /veh TPSAB1 /// TPSB2 (11721975_s_at) / RFU GSTM3 (11746129_a_at) / Fold change /veh GSTM3 (11746129_a_at) / RFU IL23R (11737362_x_at) / Fold change /veh IL23R (11737362_x_at) / RFU TMEM51 (11727254_a_at) / Fold change /veh TMEM51 (11727254_a_at) / RFU PIWIL2 (11732686_x_at) / Fold change /veh PIWIL2 (11732686_x_at) / RFU ORM1 (11744905_x_at) / Fold change /veh ORM1 (11744905_x_at) / RFU CCDC152 (11743942_at) / Fold change /veh CCDC152 (11743942_at) / RFU ECM1 (11717891_a_at) / Fold change /veh ECM1 (11717891_a_at) / RFU IL23R (11748794_a_at) / Fold change /veh IL23R (11748794_a_at) / RFU TNFAIP8L3 (11732012_x_at) / Fold change /veh TNFAIP8L3 (11732012_x_at) / RFU MBOAT4 (11741988_at) / Fold change /veh MBOAT4 (11741988_at) / RFU 11764193_at / Fold change /veh 11764193_at / RFU TMEM53 (11763286_at) / Fold change /veh TMEM53 (11763286_at) / RFU MAGEB2 (11727129_at) / Fold change /veh MAGEB2 (11727129_at) / RFU TMEM200A (11744735_a_at) / Fold change /veh TMEM200A (11744735_a_at) / RFU CCDC152 (11751479_a_at) / Fold change /veh CCDC152 (11751479_a_at) / RFU FAM211A (11726209_a_at) / Fold change /veh FAM211A (11726209_a_at) / RFU RGS16 (11746705_a_at) / Fold change /veh RGS16 (11746705_a_at) / RFU VCAN (11755009_s_at) / Fold change /veh VCAN (11755009_s_at) / RFU RHOB (11743442_s_at) / Fold change /veh RHOB (11743442_s_at) / RFU RGS16 (11720943_a_at) / Fold change /veh RGS16 (11720943_a_at) / RFU RGS16 (11720944_at) / Fold change /veh RGS16 (11720944_at) / RFU, VPS4B / Fold change vs veh, VPS4B / RFU, CREB1 / Fold change vs veh, CREB1 / RFU, DNAJC13 / Fold change vs veh, DNAJC13 / RFU, GNAQ / Fold change vs veh, GNAQ / RFU, CDK5R1 / Fold change vs veh, CDK5R1 / RFU, ZRANB3 / Fold change vs veh, ZRANB3 / RFU, CUL4A / Fold change vs veh, CUL4A / RFU, CCNY / Fold change vs veh, CCNY / RFU, UFL1 / Fold change vs veh, UFL1 / RFU, COG3 / Fold change vs veh, COG3 / RFU, DIAPH2 / Fold change vs veh, DIAPH2 / RFU, SKA2 / Fold change vs veh, SKA2 / RFU, AFF3 / Fold change vs veh, AFF3 / RFU, LMF1 / Fold change vs veh, LMF1 / RFU, IPO11 / Fold change vs veh, IPO11 / RFU, DFFB / Fold change vs veh, DFFB / RFU, FOXP1 / Fold change vs veh, FOXP1 / RFU, CARD8 / Fold change vs veh, CARD8 / RFU, STRN3 / Fold change vs veh, STRN3 / RFU, ADK / Fold change vs veh, ADK / RFU, RASSF2 / Fold change vs veh, RASSF2 / RFU, WIPF1 / Fold change vs veh, WIPF1 / RFU, LARP1B / Fold change vs veh, LARP1B / RFU, RASA1 / Fold change vs veh, RASA1 / RFU, RB1 / Fold change vs veh, RB1 / RFU, PPFIA1 / Fold change vs veh, PPFIA1 / RFU, MAT2A / Fold change vs veh, MAT2A / RFU, CCT5 / Fold change vs veh, CCT5 / RFU, WDR92 / Fold change vs veh, WDR92 / RFU, CUX1 / Fold change vs veh, CUX1 / RFU, TTC7A / Fold change vs veh, TTC7A / RFU, TMEM135 / Fold change vs veh, TMEM135 / RFU, DEPTOR / Fold change vs veh, DEPTOR / RFU, CPM / Fold change vs veh, CPM / RFU, DNAJB6 / Fold change vs veh, DNAJB6 / RFU, CACNA2D3 / Fold change vs veh, CACNA2D3 / RFU, DTX4 / Fold change vs veh, DTX4 / RFU, TFCP2 / Fold change vs veh, TFCP2 / RFU, GMCL1 /// GMCL1P1 / Fold change vs veh, GMCL1 /// GMCL1P1 / RFU, AEBP2 / Fold change vs veh, AEBP2 / RFU, SNHG1 /// SNORD22 /// SNORD25 /// SNORD26 /// SNORD27 /// SNORD28 /// SNORD29 /// SNORD31 / Fold change vs veh, SNHG1 /// SNORD22 /// SNORD25 /// SNORD26 /// SNORD27 /// SNORD28 /// SNORD29 /// SNORD31 / Fold change (Aza/veh), C12orf56 (ProbeSet 11735607_a_at) / Fold change (ACY-1035/veh), C12orf56 (ProbeSet 11735607_a_at) / Fold change (Aza/veh), FGFR1OP (ProbeSet 11751329_s_at) / Fold change (ACY-1035/veh), FGFR1OP (ProbeSet 11751329_s_at) / Fold change (Aza/veh), VPS36 (ProbeSet 11739960_a_at) / Fold change (ACY-1035/veh), VPS36 (ProbeSet 11739960_a_at) / RFU SYPL1 (11715823_x_at) / Fold change /veh SYPL1 (11715823_x_at) / RFU IGFBP7 (11715501_s_at) / Fold change /veh IGFBP7 (11715501_s_at) / RFU REEP3 (11722064_at) / Fold change /veh REEP3 (11722064_at) / RFU IGLL1 (11728026_x_at) / Fold change /veh IGLL1 (11728026_x_at): dose or concentration left out as unconfirmed
Details: MV-4-11 cells, 48 hours

For `Nc1ncn([C@@H]2O[C@H](CO)[C@@H](O)[C@H]2O)c(=O)n1` [azacitidine], the “Fold change /veh VPS37D (11726825_at)” value was 1.12.
